{"source": "patent US20230097866A1", "about": "“BACTERIAL TOPOISOMERASE INHIBITORS DERIVED FROM ISOMANNIDE” (Ohio State Innovation Foundation, priority 2020, published 2023)", "key": {"[1]": {"tested_on": "S. aureus ATCC 29213", "experiment": "MIC, CLSI broth microdilution, S. aureus ATCC 29213", "format": "cell-based", "details": "Staphylococcus aureus, ATCC29213; CLSI broth microdilution, triplicate; read-out: MIC ATCC 29213"}, "[2]": {"tested_on": "USA300 isolate of MRSA", "experiment": "MIC, CLSI broth microdilution, USA300 MRSA", "format": "cell-based", "details": "Staphylococcus aureus; CLSI broth microdilution; ciprofloxacin-resistant MRSA; read-out: MIC USA300"}, "[3]": {"tested_on": "S. aureus strain isolated from a cystic fibrosis patient", "experiment": "MIC, CLSI broth microdilution, CF isolate", "format": "cell-based", "details": "Staphylococcus aureus; CLSI broth microdilution; read-out: MIC CF isolate"}, "[4]": {"target": "S. aureus DNA gyrase (Staphylococcus aureus, UniProt P20831)", "sequence (P0A0K8 whole entry)": "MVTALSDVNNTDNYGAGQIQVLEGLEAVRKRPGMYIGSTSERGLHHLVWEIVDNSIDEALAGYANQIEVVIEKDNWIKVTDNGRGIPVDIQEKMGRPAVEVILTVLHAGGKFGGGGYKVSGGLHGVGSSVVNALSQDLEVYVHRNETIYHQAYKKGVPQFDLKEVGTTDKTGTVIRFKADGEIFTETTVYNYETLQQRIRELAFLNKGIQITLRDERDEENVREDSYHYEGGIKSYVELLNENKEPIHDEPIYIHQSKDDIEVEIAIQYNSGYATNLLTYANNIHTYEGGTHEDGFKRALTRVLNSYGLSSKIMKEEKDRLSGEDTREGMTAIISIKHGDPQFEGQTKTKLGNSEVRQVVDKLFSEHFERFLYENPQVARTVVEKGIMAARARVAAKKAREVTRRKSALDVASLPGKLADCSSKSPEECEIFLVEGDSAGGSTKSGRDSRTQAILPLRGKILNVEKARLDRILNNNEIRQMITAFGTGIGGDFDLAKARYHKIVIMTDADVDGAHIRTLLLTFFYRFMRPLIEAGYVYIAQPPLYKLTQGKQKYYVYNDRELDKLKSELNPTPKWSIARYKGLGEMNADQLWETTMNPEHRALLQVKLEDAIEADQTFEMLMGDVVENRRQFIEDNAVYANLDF", "sequence (P20831 whole entry)": "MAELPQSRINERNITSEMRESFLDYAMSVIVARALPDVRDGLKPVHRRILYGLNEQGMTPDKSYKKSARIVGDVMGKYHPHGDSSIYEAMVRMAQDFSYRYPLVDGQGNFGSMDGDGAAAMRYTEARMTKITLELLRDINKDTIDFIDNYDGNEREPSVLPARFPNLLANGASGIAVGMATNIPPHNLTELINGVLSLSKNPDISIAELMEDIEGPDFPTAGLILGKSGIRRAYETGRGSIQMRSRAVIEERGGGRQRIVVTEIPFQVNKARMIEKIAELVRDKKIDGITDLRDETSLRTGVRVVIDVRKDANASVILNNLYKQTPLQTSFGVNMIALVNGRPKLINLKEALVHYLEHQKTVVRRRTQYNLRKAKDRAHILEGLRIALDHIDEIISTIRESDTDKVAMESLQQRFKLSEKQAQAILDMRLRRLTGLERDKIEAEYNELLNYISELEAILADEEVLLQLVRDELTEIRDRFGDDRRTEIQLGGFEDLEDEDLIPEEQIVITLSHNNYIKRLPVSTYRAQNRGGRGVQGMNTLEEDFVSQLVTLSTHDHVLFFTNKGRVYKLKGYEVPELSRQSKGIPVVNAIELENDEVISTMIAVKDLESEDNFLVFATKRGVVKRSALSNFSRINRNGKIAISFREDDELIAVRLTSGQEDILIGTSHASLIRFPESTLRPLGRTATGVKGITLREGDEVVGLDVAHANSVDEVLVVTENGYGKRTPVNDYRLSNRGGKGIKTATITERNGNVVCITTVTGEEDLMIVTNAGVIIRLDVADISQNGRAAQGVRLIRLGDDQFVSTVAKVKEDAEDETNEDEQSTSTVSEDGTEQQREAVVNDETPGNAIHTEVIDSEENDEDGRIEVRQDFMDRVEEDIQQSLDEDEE", "experiment": "Inhibition of DNA gyrase, biochemical assay (Inspiralis)", "details": "S. aureus DNA gyrase; Inspiralis, Ltd.; read-out: Gyrase IC50"}, "[5]": {"target": "TopoIV from S. aureus (Staphylococcus aureus, UniProt P0C1U9)", "sequence (P0C1S7 whole entry)": "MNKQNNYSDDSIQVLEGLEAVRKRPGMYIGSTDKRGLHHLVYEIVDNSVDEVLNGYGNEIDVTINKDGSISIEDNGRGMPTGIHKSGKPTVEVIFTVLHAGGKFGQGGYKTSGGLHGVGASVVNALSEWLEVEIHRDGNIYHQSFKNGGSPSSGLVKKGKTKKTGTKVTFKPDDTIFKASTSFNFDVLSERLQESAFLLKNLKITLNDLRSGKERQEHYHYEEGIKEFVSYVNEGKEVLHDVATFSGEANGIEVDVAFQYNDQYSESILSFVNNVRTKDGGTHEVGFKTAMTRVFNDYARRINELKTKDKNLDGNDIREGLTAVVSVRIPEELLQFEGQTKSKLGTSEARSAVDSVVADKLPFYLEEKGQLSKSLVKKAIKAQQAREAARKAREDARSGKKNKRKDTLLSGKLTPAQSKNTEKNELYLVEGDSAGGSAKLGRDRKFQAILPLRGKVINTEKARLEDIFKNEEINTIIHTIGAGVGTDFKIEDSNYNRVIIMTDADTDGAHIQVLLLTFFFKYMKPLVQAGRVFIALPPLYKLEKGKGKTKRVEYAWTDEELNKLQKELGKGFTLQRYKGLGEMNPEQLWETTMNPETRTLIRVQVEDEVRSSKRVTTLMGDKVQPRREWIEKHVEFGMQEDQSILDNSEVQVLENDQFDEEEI", "sequence (P0C1U9 whole entry)": "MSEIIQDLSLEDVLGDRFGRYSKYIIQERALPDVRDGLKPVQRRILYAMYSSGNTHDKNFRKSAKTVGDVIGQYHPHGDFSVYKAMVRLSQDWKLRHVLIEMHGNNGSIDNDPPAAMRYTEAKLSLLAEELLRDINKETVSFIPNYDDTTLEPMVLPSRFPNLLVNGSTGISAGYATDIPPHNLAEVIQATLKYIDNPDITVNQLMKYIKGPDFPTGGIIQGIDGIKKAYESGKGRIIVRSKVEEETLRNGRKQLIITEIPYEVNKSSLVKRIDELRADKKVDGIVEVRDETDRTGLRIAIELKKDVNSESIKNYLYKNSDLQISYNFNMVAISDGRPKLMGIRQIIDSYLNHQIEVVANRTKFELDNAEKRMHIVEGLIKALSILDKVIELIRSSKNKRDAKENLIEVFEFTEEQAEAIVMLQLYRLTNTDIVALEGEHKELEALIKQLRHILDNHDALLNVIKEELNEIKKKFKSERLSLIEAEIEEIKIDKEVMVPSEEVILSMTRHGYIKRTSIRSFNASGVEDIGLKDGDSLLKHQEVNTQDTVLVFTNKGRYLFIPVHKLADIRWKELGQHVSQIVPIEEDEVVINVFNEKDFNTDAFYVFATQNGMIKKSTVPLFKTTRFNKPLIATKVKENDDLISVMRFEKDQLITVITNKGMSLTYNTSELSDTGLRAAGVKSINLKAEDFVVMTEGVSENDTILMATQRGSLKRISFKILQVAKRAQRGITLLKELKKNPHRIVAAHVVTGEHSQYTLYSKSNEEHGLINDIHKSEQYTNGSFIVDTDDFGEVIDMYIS", "experiment": "biochemical", "format": "biochemical"}, "[6]": {"target": "hERG (Homo sapiens, UniProt Q12809)", "sequence (Q12809 whole entry)": "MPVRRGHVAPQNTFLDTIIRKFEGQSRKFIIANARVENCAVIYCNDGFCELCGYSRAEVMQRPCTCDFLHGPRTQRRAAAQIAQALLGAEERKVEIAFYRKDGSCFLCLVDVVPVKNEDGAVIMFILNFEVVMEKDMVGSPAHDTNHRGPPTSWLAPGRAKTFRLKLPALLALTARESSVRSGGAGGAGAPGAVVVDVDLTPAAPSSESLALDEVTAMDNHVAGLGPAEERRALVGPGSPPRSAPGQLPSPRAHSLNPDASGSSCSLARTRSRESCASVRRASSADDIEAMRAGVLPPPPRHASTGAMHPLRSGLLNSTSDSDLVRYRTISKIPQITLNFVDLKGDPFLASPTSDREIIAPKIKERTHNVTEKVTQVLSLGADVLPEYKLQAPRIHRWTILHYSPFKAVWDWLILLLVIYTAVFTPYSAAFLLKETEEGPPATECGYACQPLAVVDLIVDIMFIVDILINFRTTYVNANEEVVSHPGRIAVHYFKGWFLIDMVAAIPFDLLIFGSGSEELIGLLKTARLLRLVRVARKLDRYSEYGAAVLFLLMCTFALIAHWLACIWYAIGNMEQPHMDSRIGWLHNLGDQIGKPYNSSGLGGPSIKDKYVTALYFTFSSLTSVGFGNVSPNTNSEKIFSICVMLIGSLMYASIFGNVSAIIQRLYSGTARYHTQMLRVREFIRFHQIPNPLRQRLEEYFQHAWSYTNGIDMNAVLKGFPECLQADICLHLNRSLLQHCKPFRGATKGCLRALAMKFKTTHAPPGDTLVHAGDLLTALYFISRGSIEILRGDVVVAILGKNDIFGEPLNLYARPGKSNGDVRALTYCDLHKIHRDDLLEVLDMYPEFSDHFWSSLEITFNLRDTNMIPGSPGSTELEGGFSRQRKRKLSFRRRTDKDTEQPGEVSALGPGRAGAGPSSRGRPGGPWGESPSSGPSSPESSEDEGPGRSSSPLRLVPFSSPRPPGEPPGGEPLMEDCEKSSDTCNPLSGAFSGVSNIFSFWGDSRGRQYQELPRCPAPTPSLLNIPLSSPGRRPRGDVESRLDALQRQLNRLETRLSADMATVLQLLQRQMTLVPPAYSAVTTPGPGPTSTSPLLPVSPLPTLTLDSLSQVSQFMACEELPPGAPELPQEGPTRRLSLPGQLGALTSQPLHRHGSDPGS", "experiment": "hERG IC50, IonWorks Barracuda (Charles River)", "description": "The design of these isomannide-detived NBTIs focused on enhanced polarity and modulation of basicity through the two electronegative oxygen atoms in the linker."}, "[7]": {"tested_on": "S. aureus ATCC 29213", "details": "previously published data for 27 and ciprofloxacin; cited from earlier work"}, "[8]": {"tested_on": "MRSADRL-3161", "details": "previously published data for 27 and ciprofloxacin; cited from earlier work"}, "[9]": {"tested_on": "Streptococcus pyogenes LSI-1235", "details": "previously published data for 27 and ciprofloxacin; cited from earlier work"}, "[10]": {"tested_on": "Streptococcus pneumoniae LSI-4234", "details": "penicillin-susceptible strain; previously published data for 27 and ciprofloxacin; cited from earlier work"}, "[11]": {"tested_on": "Streptococcus pneumoniae LSI-4246", "details": "penicillin-resistant strain; previously published data for 27 and ciprofloxacin; cited from earlier work"}, "[12]": {"tested_on": "Enterococcus faecium DRL-4193", "details": "vancomycin-susceptible strain; previously published data for 27 and ciprofloxacin; cited from earlier work"}, "[13]": {"tested_on": "Enterococcus faecium LSI-3340", "details": "vancomycin-resistant strain; previously published data for 27 and ciprofloxacin; cited from earlier work"}, "[14]": {"tested_on": "Enterococcus faecalis ATCC 29212", "details": "previously published data for 27 and ciprofloxacin; cited from earlier work"}, "[15]": {"tested_on": "Escherichia coli ATCC 25922", "details": "previously published data for 27 and ciprofloxacin; cited from earlier work"}, "[16]": {"tested_on": "Pseudomonas aeruginosa LSI-2946", "details": "previously published data for 27 and ciprofloxacin; cited from earlier work"}, "[17]": {"tested_on": "Acinetobacter baumannii LSI-2957", "details": "previously published data for 27 and ciprofloxacin; cited from earlier work"}, "[18]": {"tested_on": "Klebsiella pneumoniae LSI-2999", "details": "previously published data for 27 and ciprofloxacin; cited from earlier work"}, "[19]": {"tested_on": "Enterobacter cloacae LSI-2943", "details": "previously published data for 27 and ciprofloxacin; cited from earlier work"}}, "note": "Marks after values point to notes of the source that are not given here.", "data": [{"smiles": "COc1ccc2ncc(F)c(CCC3OCC(NCc4ccc5c(c4)OCCO5)CO3)c2n1", "note": "(centres unmarked) [Compound 27]", "values": [{"measurement": "MIC", "setting": "[1]", "value": "≤ 0.25", "unit": "µg/mL"}, {"measurement": "MIC", "setting": "[2]", "value": "0.125 to 0.25", "unit": "µg/mL"}, {"measurement": "MIC", "setting": "[3]", "value": 0.25, "unit": "µg/mL"}, {"measurement": "IC50", "setting": "[4]", "value": 30, "unit": "nM"}, {"measurement": "IC50", "setting": "[5]; S. aureus TopoIV, read-out: TopoIV IC50", "value": 1000, "unit": "nM"}, {"measurement": "TopoIV/gyrase IC50 ratio", "setting": "[5]; S. aureus enzymes", "value": 33}, {"measurement": "IC50", "setting": "[6]", "value": 8000, "unit": "nM"}, {"measurement": "MIC S. aureus ATCC 29213 (n = 3)", "setting": "[7]", "value": "≤0.06^b μg/mL"}, {"measurement": "MIC MRSADRL-3161", "setting": "[8]", "value": "≤0.06", "unit": "µg/mL"}, {"measurement": "MIC Streptococcus pyogenes LSI-1235", "setting": "[9]", "value": "≤0.06", "unit": "µg/mL"}, {"measurement": "MIC Streptococcus pneumoniae LSI-4234", "setting": "[10]", "value": 0.25, "unit": "µg/mL"}, {"measurement": "MIC Streptococcus pneumoniae LSI-4246", "setting": "[11]", "value": "≤0.06", "unit": "µg/mL"}, {"measurement": "MIC Enterococcus faecium DRL-4193", "setting": "[12]", "value": "0.12^f μg/mL"}, {"measurement": "MIC Enterococcus faecium LSI-3340", "setting": "[13]", "value": 0.12, "unit": "µg/mL"}, {"measurement": "MIC Enterococcus faecalis ATCC 29212", "setting": "[14]", "value": 0.5, "unit": "µg/mL"}, {"measurement": "MIC Escherichia coli ATCC 25922 (n = 2)", "setting": "[15]", "value": 16, "unit": "µg/mL"}, {"measurement": "MIC Pseudomonas aeruginosa LSI-2946", "setting": "[16]", "value": 4, "unit": "µg/mL"}, {"measurement": "MIC Acinetobacter baumannii LSI-2957", "setting": "[17]", "value": 2, "unit": "µg/mL"}, {"measurement": "MIC Klebsiella pneumoniae LSI-2999", "setting": "[18]", "value": ">64", "unit": "µg/mL"}, {"measurement": "MIC Enterobacter cloacae LSI-2943", "setting": "[19]", "value": 32, "unit": "µg/mL"}]}]}
